Here are results for 4 molecules from BindingDB's records for doi:10.1021/jm010576e (Chiba University, 2002).

The assay in a line: Binding affinity using guinea pig brain membrane preparations, towards Opioid receptor delta 1 using [3H]DPDPE as radioligand.

In the case of `CC[C@@H]1CN2CCc3c([nH]c4cccc(O)c34)[C@@H]2C[C@@H]1/C(=C\OC)C(=O)OC`, the affinity, expressed as Ki, was 30.9 µM. In turn, `CC[C@@H]1CN2CC[C@@]3(O)C(=Nc4cccc(OC)c43)[C@@H]2C[C@@H]1/C(=C\OC)C(=O)OC` returned a Ki of 0.155 µM. `CC[C@@H]1CN2CCc3c([nH]c4cccc(OC)c34)[C@@H]2C[C@@H]1/C(=C\OC)C(=O)OC` [CHEBI:6956] displayed a Ki of 0.06 µM. `CC[C@@H]1CN2CCc3c([nH]c4ccccc34)[C@@H]2C[C@@H]1/C(=C\OC)C(=O)OC` [CHEBI:70073]: the Ki turned out to be 2.88 µM.

As usually defined, the Ki is the equilibrium dissociation constant of an inhibitor or competing ligand from its target.
